Data taken from the NIST ThermoML archive (doi:10.1016/j.jct.2018.09.023).
Numbers after ± are expanded uncertainties.

Experiments:
[1] = activity coefficient (dimensionless); of the first substance listed, at infinite dilution; xn = mol fraction of the nth substance listed; settings: 101.33 kPa, Liquid, Chromatography, x1 = 0
[2] = 101.3 kPa, Liquid, Vibrating tube method

SMILES	activity coefficient ([1]; 323.15 K)	activity coefficient ([1]; 333.15 K)	activity coefficient ([1]; 343.15 K)	activity coefficient ([1]; 353.15 K)	activity coefficient ([1]; 363.15 K)	mass density ([2]; 323.15 K) [kg/m3]	mass density ([2]; 333.15 K) [kg/m3]	mass density ([2]; 343.15 K) [kg/m3]	mass density ([2]; 353.15 K) [kg/m3]	mass density ([2]; 363.15 K) [kg/m3]
Cc1ccccc1C [1,2-dimethylbenzene] + CCC[n+]1ccn(C)c1.[Br-]	4.19 ± 0.44	4.3 ± 0.45	4.49 ± 0.47	4.71 ± 0.49	4.97 ± 0.52	–	–	–	–	–
Cc1cccc(C)c1 [1,3-dimethylbenzene] + CCC[n+]1ccn(C)c1.[Br-]	5.91 ± 0.62	6.04 ± 0.63	6.18 ± 0.65	6.33 ± 0.67	6.47 ± 0.68	–	–	–	–	–
Cc1ccc(C)cc1 [1,4-dimethylbenzene] + CCC[n+]1ccn(C)c1.[Br-]	5.65 ± 0.59	5.8 ± 0.61	5.95 ± 0.63	6.11 ± 0.64	6.3 ± 0.66	–	–	–	–	–
C1COCCO1 [1,4-dioxane] + CCC[n+]1ccn(C)c1.[Br-]	1.01 ± 0.1	1.05 ± 0.11	1.11 ± 0.11	1.17 ± 0.12	1.23 ± 0.13	–	–	–	–	–
CCC[n+]1ccn(C)c1.[Br-] [1-methyl-3-propylimidazolium bromide]	–	–	–	–	–	1317.74 ± 2.5	1310.86 ± 2.5	1304.04 ± 2.4	1297.27 ± 2.4	1290.33 ± 2.4
CC(C)CC(C)(C)C [2,2,4-trimethylpentane] + CCC[n+]1ccn(C)c1.[Br-]	115 ± 12	111 ± 12	108 ± 11	104 ± 11	101 ± 11	–	–	–	–	–
CC(C)CO [2-methyl-1-propanol] + CCC[n+]1ccn(C)c1.[Br-]	0.426 ± 0.049	0.406 ± 0.047	0.39 ± 0.046	0.378 ± 0.045	0.368 ± 0.044	–	–	–	–	–
CC(C)CCO [3-methylbutan-1-ol] + CCC[n+]1ccn(C)c1.[Br-]	0.62 ± 0.066	0.587 ± 0.063	0.564 ± 0.061	0.548 ± 0.059	0.531 ± 0.058	–	–	–	–	–
CC(C)=O [acetone] + CCC[n+]1ccn(C)c1.[Br-]	1.06 ± 0.11	1.14 ± 0.12	1.21 ± 0.12	1.29 ± 0.13	1.37 ± 0.14	–	–	–	–	–
CC#N [acetonitrile] + CCC[n+]1ccn(C)c1.[Br-]	0.37 ± 0.04	0.39 ± 0.05	0.41 ± 0.05	0.44 ± 0.05	0.48 ± 0.05	–	–	–	–	–
c1ccccc1 [benzene] + CCC[n+]1ccn(C)c1.[Br-]	1.7 ± 0.18	1.79 ± 0.19	1.89 ± 0.2	2 ± 0.21	2.11 ± 0.22	–	–	–	–	–
CCCCO [butan-1-ol] + CCC[n+]1ccn(C)c1.[Br-]	0.438 ± 0.05	0.417 ± 0.048	0.402 ± 0.047	0.388 ± 0.046	0.379 ± 0.045	–	–	–	–	–
CCC(C)O (stereo not given) [butan-2-ol] + CCC[n+]1ccn(C)c1.[Br-]	0.52 ± 0.057	0.5 ± 0.055	0.485 ± 0.054	0.471 ± 0.053	0.462 ± 0.052	–	–	–	–	–
C1CCCCC1 [cyclohexane] + CCC[n+]1ccn(C)c1.[Br-]	66.2 ± 7	64.5 ± 6.8	62.9 ± 6.6	61.6 ± 6.5	60.4 ± 6.4	–	–	–	–	–
C1=CCCCC1 [cyclohexene] + CCC[n+]1ccn(C)c1.[Br-]	21.7 ± 2.3	20.6 ± 2.2	19.7 ± 2.1	18.8 ± 2	18.1 ± 1.9	–	–	–	–	–
CCCCCCCCCC [decane] + CCC[n+]1ccn(C)c1.[Br-]	130 ± 14	124 ± 13	118 ± 12	112 ± 12	108 ± 11	–	–	–	–	–
ClCCl [dichloromethane] + CCC[n+]1ccn(C)c1.[Br-]	0.27 ± 0.04	0.29 ± 0.04	0.31 ± 0.04	0.34 ± 0.04	0.38 ± 0.05	–	–	–	–	–

SMILES	activity coefficient ([1]; 323.15 K)	activity coefficient ([1]; 333.15 K)	activity coefficient ([1]; 343.15 K)	activity coefficient ([1]; 353.15 K)	activity coefficient ([1]; 363.15 K)	mass density ([2]; 323.15 K) [kg/m3]	mass density ([2]; 333.15 K) [kg/m3]	mass density ([2]; 343.15 K) [kg/m3]	mass density ([2]; 353.15 K) [kg/m3]	mass density ([2]; 363.15 K) [kg/m3]
CCO [ethanol] + CCC[n+]1ccn(C)c1.[Br-]	0.208 ± 0.033	0.197 ± 0.033	0.19 ± 0.032	0.184 ± 0.032	0.18 ± 0.032	–	–	–	–	–
CCOC(C)=O [ethyl acetate] + CCC[n+]1ccn(C)c1.[Br-]	3.68 ± 0.39	3.86 ± 0.41	4.07 ± 0.43	4.27 ± 0.45	4.46 ± 0.47	–	–	–	–	–
CCc1ccccc1 [ethylbenzene] + CCC[n+]1ccn(C)c1.[Br-]	5.48 ± 0.58	5.67 ± 0.6	5.84 ± 0.61	6.01 ± 0.63	6.19 ± 0.65	–	–	–	–	–
CCCCCCC [heptane] + CCC[n+]1ccn(C)c1.[Br-]	106 ± 11	102 ± 11	98.5 ± 10	95.4 ± 10	92.5 ± 9.7	–	–	–	–	–
CCCCCC [hexane] + CCC[n+]1ccn(C)c1.[Br-]	102 ± 11	98.9 ± 10	95.6 ± 10	92.5 ± 9.7	89.9 ± 9.5	–	–	–	–	–
CO [methanol] + CCC[n+]1ccn(C)c1.[Br-]	0.112 ± 0.03	0.108 ± 0.03	0.106 ± 0.03	0.103 ± 0.03	0.102 ± 0.03	–	–	–	–	–
CC1CCCCC1 [methylcyclohexane] + CCC[n+]1ccn(C)c1.[Br-]	82.3 ± 8.7	79.9 ± 8.4	77.5 ± 8.2	75.2 ± 7.9	73.2 ± 7.7	–	–	–	–	–
CCCCCCCCC [nonane] + CCC[n+]1ccn(C)c1.[Br-]	119 ± 13	115 ± 12	110 ± 12	106 ± 11	103 ± 11	–	–	–	–	–
CCCCCCCC [octane] + CCC[n+]1ccn(C)c1.[Br-]	111 ± 12	107 ± 11	104 ± 11	100 ± 11	97.7 ± 10	–	–	–	–	–
CCCCCO [pentan-1-ol] + CCC[n+]1ccn(C)c1.[Br-]	0.692 ± 0.072	0.651 ± 0.069	0.619 ± 0.066	0.592 ± 0.063	0.575 ± 0.062	–	–	–	–	–
CCCO [propan-1-ol] + CCC[n+]1ccn(C)c1.[Br-]	0.279 ± 0.038	0.268 ± 0.037	0.258 ± 0.036	0.25 ± 0.036	0.244 ± 0.035	–	–	–	–	–
CC(C)O [propan-2-ol] + CCC[n+]1ccn(C)c1.[Br-]	0.373 ± 0.044	0.359 ± 0.043	0.344 ± 0.042	0.334 ± 0.042	0.326 ± 0.041	–	–	–	–	–
C=Cc1ccccc1 [styrene] + CCC[n+]1ccn(C)c1.[Br-]	1.83 ± 0.19	1.92 ± 0.2	2 ± 0.21	2.08 ± 0.22	2.17 ± 0.23	–	–	–	–	–
ClC(Cl)(Cl)Cl [tetrachloromethane] + CCC[n+]1ccn(C)c1.[Br-]	0.78 ± 0.08	0.86 ± 0.09	0.96 ± 0.1	1.07 ± 0.11	1.17 ± 0.12	–	–	–	–	–
C1CCOC1 [tetrahydrofuran] + CCC[n+]1ccn(C)c1.[Br-]	2.11 ± 0.22	2.19 ± 0.23	2.28 ± 0.24	2.37 ± 0.25	2.47 ± 0.26	–	–	–	–	–
Cc1ccccc1 [toluene] + CCC[n+]1ccn(C)c1.[Br-]	2.95 ± 0.31	3.11 ± 0.33	3.33 ± 0.35	3.5 ± 0.37	3.72 ± 0.39	–	–	–	–	–
ClC(Cl)Cl [trichloromethane] + CCC[n+]1ccn(C)c1.[Br-]	0.13 ± 0.03	0.15 ± 0.03	0.16 ± 0.03	0.18 ± 0.03	0.2 ± 0.03	–	–	–	–	–
